The results in this text go back to publication PMC6691788, “Design and synthesis of phthalazine-based compounds as potent anticancer agents with potential antiangiogenic activity via VEGFR-2 inhibition” (Journal of Enzyme Inhibition and Medicinal Chemistry, 2019).

Experiment in all cases: NCI 60 cell panel SRB screen
Assay [1] deals with COLO 205. It is filed as cell-based. Particulars: Homo sapiens; COLO 205, single dose 10 μM; read-out: percent cell growth promotion.
In assay [2] the test system is DU-145. The assay is classed as cell-based. The settings on record: Homo sapiens; DU-145, single dose 10 μM; read-out: percent cell growth promotion.
Assay [3] relates to A498. The assay is classed as cell-based. Particulars: Homo sapiens; A498, single dose 10 μM; read-out: percent cell growth promotion.
The subject of assay [4] is MCF7. It is filed as cell-based. The settings on record: Homo sapiens, MCF7, read-out: percent cell growth promotion.
For assay [5], the system named is LOX IMVI. The assay is classed as cell-based. Particulars: Homo sapiens, read-out: percent cell growth promotion.
In assay [6] the test system is M14. It is filed as cell-based. Particulars: Homo sapiens, M14, read-out: percent cell growth promotion.
Assay [7] has as its system HT29. It is filed as cell-based. The settings on record: Homo sapiens, HT-29; HT29, single dose 10 μM; read-out: percent cell growth promotion.
Assay [8] relates to NCI-H322M. The assay is classed as cell-based. The settings on record: Homo sapiens, single dose 10 μM, read-out: percent cell growth promotion.
The test system of assay [9] is NCI/ADR-RES. It is filed as cell-based. The settings on record: Homo sapiens, single dose 10 μM, read-out: percent cell growth promotion.
In assay [10] the test system is UO-31. The assay is classed as cell-based. Particulars: Homo sapiens; UO-31, single dose 10 μM; read-out: percent cell growth promotion.
Assay [11] relates to SF-295. It is filed as cell-based. The settings on record: Homo sapiens; SF-295, single dose 10 μM; read-out: percent cell growth promotion.
For assay [12], the system named is HOP-92. The assay is classed as cell-based. The settings on record: Homo sapiens; HOP-92, single dose 10 μM; read-out: percent cell growth promotion.
Assay [13] relates to OVCAR-8. The assay is classed as cell-based. The settings on record: Homo sapiens; OVCAR-8, single dose 10 μM; read-out: percent cell growth promotion.
The test system of assay [14] is SF-268. It is filed as cell-based. The settings on record: Homo sapiens; SF-268, single dose 10 μM; read-out: percent cell growth promotion.
Assay [15] relates to SF-539. It is filed as cell-based, human. The settings on record: SF-539, single dose 10 μM.
The test system of assay [16] is SK-MEL-2. It is filed as cell-based. Particulars: SK-MEL-2, single dose 10 μM.
Assay [17] has as its system EKVX. It is filed as cell-based, human. Particulars: single dose 10 μM.

With `O=C(Nc1ccc(Nc2nncc3ccccc23)cc1)c1ccc(Cl)cc1` [Compound 5b, 4-Chloro-N-(4-(phthalazin-1-ylamino)phenyl)benzamide], the activity at 10 µM in assay [1] came to 104%; in assay [2], 114%; in assay [3], 98.7%; in assay [4], 93%; in assay [5], 99.9%; in assay [6], 99.7%. Also, the activity at 10 µM in assay [7] worked out at 104%; in assay [8], 109%; in assay [9], 103%; in [10], 78.6%; in assay [11], 102%; in assay [12], 97.5%. The activity at 10 µM was found to be 96.2% in [13] and 98% in [14].

`Cc1nnc(Nc2ccc(NC(=O)c3ccc(Cl)cc3)cc2)c2ccccc12` [Compound 5d, 4-Chloro-N-(4–(4-methylphthalazin-1-ylamino)phenyl)benzamide]: the activity at 10 µM amounted to 90.3% in assay [1]; 102% in [2]; 88.9% in assay [3]; 84.5% in assay [4]; 91.9% in assay [5]; 97.1% in [6]. Moreover, the activity at 10 µM in [7] is 94.3%; in [8], 112%; in assay [9] it was 96%; in assay [10], 57.8%; in assay [11], 105%; in assay [12], 55.4%. In addition, the values for the activity at 10 µM in assay [13] and in assay [14] were 93.1% and 90%, respectively.

In the case of `Cc1nnc(Oc2ccc(NC(=O)Nc3ccc(Cl)cc3)cc2)c2ccccc12` [Compound 7e, 1–(4-Chlorophenyl)-3–(4-(4-methylphthalazin-1-yloxy)phenyl)urea], the activity at 10 µM in assay [1] was found to be 87.4%; in [2], 81.4%; in assay [3], 51.5%; in assay [4] it was 72.7%; in assay [5] it was 78.1%; in assay [6], 79.4%. Besides, the activity at 10 µM amounted to 77% in [7]; 82.4% in [8]; 72.8% in assay [9]; 51.4% in [10]; 91.8% in assay [11]; 93.5% in assay [12]. The activity at 10 µM in assay [13] turned out to be 76%; in assay [14], 70.5%.

For `CCOC(=O)N1CCN(c2nncc3ccccc23)CC1` [Compound 8a, Ethyl 4-(phthalazin-1-yl)piperazine-1-carboxylate], the activity at 10 µM in assay [1] stood at 109%; in [2], 104%; in assay [3] it was 105%; in [4], 103%; in [5] it was 98.7%; in [6] it was 110%. Also, the activity at 10 µM worked out at 106% in [7]; 113% in assay [8]; 102% in assay [9]; 91.3% in assay [10]; 102% in assay [11]; 104% in assay [12]. Also, the activity at 10 µM in assay [13] turned out to be 97.7%; in assay [14] it was 104%.

As for `c1ccc(N2CCN(c3nncc4ccccc34)CC2)nc1` [Compound 8d, 1–(4-(Pyridin-2-yl)piperazin-1-yl)phthalazine], the activity at 10 µM in assay [1] amounted to 106%; in assay [2], 99%; in [3], 97.8%; in assay [4], 105%; in assay [5] it was 97.5%; in [6], 102%. Moreover, the activity at 10 µM is 98.2% in [7]; 114% in assay [8]; 109% in assay [9]; 96% in assay [10]; 107% in [11]; 102% in assay [12]. The results for the activity at 10 µM in [13] and in assay [14] were 97.8% and 103%, respectively.

Turning to `CCOC(=O)N1CCN(c2nnc(C)c3ccccc23)CC1` [Compound 8f, Ethyl 4–(4-methylphthalazin-1-yl)piperazine-1-carboxylate], the activity at 10 µM in assay [1] was determined as 109%; in assay [2] it was 100%; in assay [3] it was 76.5%; in assay [4], 92.1%; in assay [5], 106%; in [6], 104%. The activity at 10 µM in [7] was determined as 96%; in assay [8], 101%; in assay [9], 109%; in [10] it was 92.2%; in assay [11] it was 94.2%; in assay [12] it was 112%. Besides, the results for the activity at 10 µM in assay [13] and in assay [14] were 102% and 101%, respectively.

As to `Cc1nnc(N2CCN(c3ccccc3)CC2)c2ccccc12` [Compound 8g, 1-Methyl-4–(4-phenylpiperazin-1-yl)phthalazine], the activity at 10 µM in [1] is 97.7%; in assay [2] it was 111%; in assay [3] it was 71.7%; in [4], 96.7%; in assay [5], 103%; in [6], 94.8%. The activity at 10 µM in assay [7] amounted to 98.3%; in assay [8], 112%; in [9], 107%; in [10], 108%; in assay [11] it was 96%; in assay [12], 95.9%. Moreover, the activity at 10 µM came out at 97.1% in assay [13] and 108% in assay [14].

For `Cc1nnc(N2CCN(c3ccccc3F)CC2)c2ccccc12` [Compound 8h, 1–(4-(2-Fluorophenyl)piperazin-1-yl)-4-methylphthalazine], the activity at 10 µM was determined as 120% in assay [1]; 107% in [2]; 65.3% in [3]; 86.5% in assay [4]; 106% in assay [5]; 95% in assay [6]. For the same molecule, the activity at 10 µM in assay [7] is 90%; in assay [8] it was 121%; in [9], 96.9%; in assay [10] it was 95.9%; in assay [11] it was 92.7%; in assay [12], 112%. Besides, the activity at 10 µM in assay [13] was 95.3%; in assay [14], 110%.

Consider `Cc1nnc(N2CCN(c3ccccn3)CC2)c2ccccc12` [Compound 8i, 1-Methyl-4–(4-(pyridin-2-yl)piperazin-1-yl)phthalazine], for which the activity at 10 µM in assay [1] was found to be 113%; in assay [2], 111%; in assay [4] it was 89.1%; in assay [5] it was 102%; in [6], 98.6%; in [7], 91.2%. The activity at 10 µM in [8] worked out at 107%; in assay [9], 105%; in assay [10], 102%; in assay [11], 87.8%; in assay [12] it was 119%; in [13] it was 98.9%. The activity at 10 µM in [14] amounted to 106%.

In the case of `O=C(Nc1ccc(Cl)cc1)Nc1ccc(Oc2nnc(Cl)c3ccccc23)cc1` [Compound 13b, 1–(4-Chlorophenyl)-3–(4-(4-chlorophthalazin-1-yloxy)phenyl)urea], the activity at 10 µM in assay [1] amounted to 106%; in assay [2], 86.8%; in assay [3] it was 103%; in assay [4], 86.2%; in assay [5] it was 86.2%; in assay [6], 103%. Besides, the activity at 10 µM in assay [7] turned out to be 95.8%; in [8], 99.1%; in assay [9], 83.6%; in assay [10], 53.9%; in assay [11], 91.6%; in assay [12], 104%. Also, the activity at 10 µM in assay [13] is 86%; in [14], 85.8%. Moreover, the “percent cell growth promotion” value in assay [15] is listed as 84.86%; in assay [16] it was 93.58%; in assay [17], 62.48%.
